These results are taken from patent US8202893B2, “Cannabinergic lipid ligands” (University of Connecticut, priority 2004, dated 2012).

Like-named read-outs stand apart in the source and are kept apart here.

One assay has as its system anandamide transporter. In words: [3H]Anandamide transporter competition assay. As to conditions: human CCF-STG1 astrocytoma cells, 10 nM [3H]anandamide. Format: cell-based.
For the next assay, the target named is T1, Mag-lipase (Rattus norvegicus, UniProt Q8R431).
T1 construct: supernatant from final spin in the anandamide amidase preparation; from tissue; host or cells: supernatant (soluble fraction) of the anandamide amidase preparation, rat brain by the cited procedure
T1 sequence (Q8R431 1-303): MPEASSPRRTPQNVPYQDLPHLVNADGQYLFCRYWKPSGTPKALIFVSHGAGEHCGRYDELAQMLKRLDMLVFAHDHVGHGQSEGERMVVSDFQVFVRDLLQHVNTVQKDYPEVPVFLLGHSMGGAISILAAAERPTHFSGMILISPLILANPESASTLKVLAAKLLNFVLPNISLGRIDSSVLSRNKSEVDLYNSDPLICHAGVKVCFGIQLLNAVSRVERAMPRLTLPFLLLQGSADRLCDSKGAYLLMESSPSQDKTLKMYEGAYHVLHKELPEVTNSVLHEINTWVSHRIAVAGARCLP
The experiment in a line: Inhibition of MAG-lipase: 2-AG metabolism to arachidonic acid. As to conditions: 30 nmoles compound with 30 nmoles 2-AG, 30 μg enzyme, 300 μL, 20 min. Format: biochemical. The protocol: All compound solutions were made to a concentration of 10 mM in DMSO. Three tests were performed on each compound: hydrolysis, to determine the stability of the compound in assay conditions without the enzyme present; metabolism, to determine the stability of the compound with the enzyme present; and inhibition of 2-Arachidonoyl glycerol (native substrate) metabolism to arachidonic acid.
The inhibition of 2-AG metabolism was measured by mixing 30 nmoles of the compound with 30 nmoles 2-AG, and 30 μg enzyme preparation in TME buffer (final volume of 300 μL). Again the reaction mixture was treated in the same manner as described above and the concentrations of 2-AG and AA were calculated using external standards. Percent inhibition was calculated using the following equation: % Inhib.=(AA20-AA0)i/(AA20-AA0)s where (AA20-AA0)i is the amount of arachidonic acid formed over 20 minutes from 2-AG with the inhibitor present and (AA20-AA0)s is the amount of arachidonic acid formed over 20 minutes from 2-AG when the inhibitor is not present. […] The reaction mixtures were treated as described above and the amount of AA formed was calculated. The software package GraphPad Prism was utilized to calculate IC50 and Ki. HPLC Conditions:
Chromatographic separation was achieved using an Ultrasphere ODS Pre-column (4.6×45 mm) from Beckman. Hardware consisted of a Waters Millennium HPLC system with a 20 μL injection loop. The mobile phase consisted of 8.5% o-phosphoric acid:acetonitrile (3:7), run isocratically at a rate of 1 mL/min and detection at 204 nm. The total run time was 8 minutes with 2-AG eluting at 3.0 minutes and AA at 6.0 minutes.

`CCCCCC=CCC=CCC=CCC=CCCCCOC(=O)NCC(C)O` (centres unmarked) [Compound B3]: in the assay with anandamide transporter (read-out: IC50 (AT inhib.)), the 50% inhibitory concentration (IC50) was 1.5 µM. Also, the “Mag-Lipase % Inhibition” value at Mag-lipase came out at 14.3%.
For the compound `O=C(CCC/C=C\C/C=C\C/C=C\C/C=C\CCCCc1ccccc1)NCC1CC1` [Compound A1], 100 µM produced 20.5% inhibition against Mag-lipase.
The same measure, in the same setting: with `O=C(CCC/C=C\C/C=C\C/C=C\C/C=C\CCc1ccccc1)Nc1nccs1` [Compound A4] the figure was 9.2%.
For `CC/C=C\C/C=C\C/C=C\CCCCCCCCOC(=O)NC[C@H](C)O` [Compound B15], the half-inhibitory concentration (IC50) in the assay on anandamide transporter (read-out: IC50 (AT inhib.)) was 4.5 µM. Further, the “Mag-Lipase % Inhibition” value on Mag-lipase was 24.6%.
As for `CCCCC/C=C\C/C=C\CCCCCCCCOC(=O)NC[C@H](C)O` [Compound B14], the concentration for half-maximal inhibition (IC50) with anandamide transporter (read-out: IC50 (AT inhib.)) is 7.21 µM. For the same compound, the “Mag-Lipase % Inhibition” value on Mag-lipase stood at 25.8%.
Turning to `CCCCC/C=C\C/C=C\C/C=C\C/C=C\CCCCNC(=O)NC[C@H](C)O` [Compound B12], in the assay with anandamide transporter (read-out: IC50 (AT inhib.)), the IC50 amounted to 1.78 µM. At Mag-lipase, testing at 100 µM gave an inhibition of 11.1%.
`O=C(CCC/C=C\C/C=C\C/C=C\C/C=C\CCc1ccccc1)NCC1CC1` [Compound A2] registered an inhibition at 100 µM against Mag-lipase of 37.5%.
For the compound `O=C(CCC/C=C\C/C=C\C/C=C\C/C=C\CCc1ccccc1)Nc1ccc(O)cc1` [Compound A3], the IC50 in the assay with anandamide transporter (read-out: IC50 AT inhibition) came out at 9.1 µM. For the same compound, the inhibition at 100 µM on Mag-lipase turned out to be 16.7%.
As to `[N-]=[N+]=NCCCC/C=C\C/C=C\C/C=C\C/C=C\CCCC(=O)NCC1CC1` [Compound A6], testing at 100 µM at Mag-lipase gave an inhibition of 20.7%.
On Mag-lipase, `COc1cc(CNC(=O)CCC/C=C\C/C=C\C/C=C\C/C=C\CCCCN=[N+]=[N-])ccc1O` [Compound A7] displayed an inhibition at 100 µM of 13.7%.
`O=C(CCC/C=C\C/C=C\C/C=C\C/C=C\CCCCCBr)NC1CC1` [Compound A18]: the half-inhibitory concentration (IC50) in the assay with anandamide transporter (read-out: IC50 AT inhibition) worked out at 6.7 µM. For the same compound, on Mag-lipase, at 100 µM the inhibition was 22.5%.
